The record followed here is ChEMBL document CHEMBL4476887, “Lysyl oxidase-like 2 inhibitors and uses thereof” (2018).

Structures are written as SMILES. A value given as a limit tells only on which side of the number the result lay.

For the assay, the target named is T1, Lysyl oxidase homolog 2 (Homo sapiens, UniProt Q9Y4K0).
T1 sequence (Q9Y4K0 whole entry): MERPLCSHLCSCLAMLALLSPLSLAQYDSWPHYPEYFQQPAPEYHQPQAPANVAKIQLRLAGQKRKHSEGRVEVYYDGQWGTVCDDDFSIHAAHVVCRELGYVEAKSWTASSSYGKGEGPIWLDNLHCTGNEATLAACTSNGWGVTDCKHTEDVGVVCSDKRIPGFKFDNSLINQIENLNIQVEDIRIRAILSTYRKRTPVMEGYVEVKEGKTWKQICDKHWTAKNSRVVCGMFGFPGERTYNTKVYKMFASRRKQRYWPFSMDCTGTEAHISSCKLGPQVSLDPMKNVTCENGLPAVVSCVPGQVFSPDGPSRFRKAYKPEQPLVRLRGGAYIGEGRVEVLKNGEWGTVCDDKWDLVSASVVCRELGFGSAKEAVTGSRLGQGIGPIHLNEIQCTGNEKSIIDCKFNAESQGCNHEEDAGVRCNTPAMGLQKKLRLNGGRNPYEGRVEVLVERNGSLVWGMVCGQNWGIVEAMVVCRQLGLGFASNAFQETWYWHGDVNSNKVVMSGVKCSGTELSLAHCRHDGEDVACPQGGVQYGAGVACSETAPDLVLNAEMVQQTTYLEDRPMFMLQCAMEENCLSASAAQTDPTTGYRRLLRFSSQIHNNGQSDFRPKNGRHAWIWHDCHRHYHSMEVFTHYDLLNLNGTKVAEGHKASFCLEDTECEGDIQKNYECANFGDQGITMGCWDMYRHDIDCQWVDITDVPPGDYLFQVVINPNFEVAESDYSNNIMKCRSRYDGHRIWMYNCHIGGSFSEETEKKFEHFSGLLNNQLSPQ
Put plainly: Inhibition of human LOXL2 expressed in CHO cells incubated for 2 hrs followed by 1,5-Diaminopentane addition by Amplex Red fluorescence based assay. It counts as cell-based.
In general, IC50 refers to the concentration needed to halve the response being measured. A lower IC50 goes with greater potency. Compound `NCCc1nc(-c2ccccc2)cs1` returned a concentration for half-maximal inhibition (IC50) of 300 to 1000 nM.

In the case of `NCc1nc2ccccc2s1`, the IC50 was under 300 nM.

Compound `NCc1cc2ccccc2s1` showed an IC50 of 300 to 1000 nM.

Take `NCCc1nc2ccccc2s1`: the IC50 was under 300 nM.

The compound `NCc1nc2ccccc2[nH]1` showed an IC50 of under 300 nM.

`NCc1cc2cc(Br)ccc2o1` came in with a half-inhibitory concentration (IC50) of over 1000 nM.

Compound `NCCc1nc2ccc(F)cc2[nH]1` came in with an IC50 of over 1000 nM.

Consider `NCc1cnccn1`, for which the IC50 is under 300 nM.

Regarding `NCc1cc2ccc(-c3cnc4ccccc4c3)cc2c(=O)[nH]1`, the IC50 is under 300 nM.

In turn, `NCCc1nc2cccc(Cl)c2o1` yielded an IC50 of under 300 nM.

`NCCc1cc2ccccc2o1` came in with an IC50 of over 1000 nM.

Turning to `NCc1cc(Oc2cccc(C(=O)Nc3ccccc3)c2)n2nccc2n1`, the IC50 fell in the range of 300 to 1000 nM.

Consider `NCCc1nc2cc(Cl)ccc2s1`, for which the IC50 was under 300 nM.

In turn, `NCc1cc2ccc(-c3cncc(C(=O)Nc4ccccc4)c3)cc2s1` had an IC50 of under 300 nM.

For the compound `NCCc1cc2ccccc2[nH]1`, the IC50 was over 1000 nM.

In the case of `NCCc1cc2ccccc2s1`, the IC50 is over 1000 nM.

As to `Cc1cc(Br)cc2cc(CN)oc12`, the IC50 is under 300 nM.

In turn, `CC(C)(C)c1ccc2sc(CN)cc2c1` yielded an IC50 of under 300 nM.

On to `NCc1cc2ccc(Br)cc2c(=O)[nH]1`, for which the IC50 was under 300 nM.

In turn, `NCc1cc2cc(-c3cccnc3)ccc2[nH]1` displayed an IC50 of under 300 nM.

In turn, `NCc1nc2cc(Cl)ccc2[nH]1` displayed an IC50 of under 300 nM.

The compound `COc1ncccc1-c1ccc2[nH]c(CN)cc2c1` displayed an IC50 of 300 to 1000 nM.

Regarding `NCCc1nc2cc(F)ccc2s1`, the IC50 is under 300 nM.

Regarding `NCCc1nc2cc(Cl)ccc2o1`, the IC50 was under 300 nM.

The compound `NCc1cc2ccc(-c3ccc(C(=O)Nc4ccccc4)nc3)cc2s1` returned an IC50 of under 300 nM.

On to `COc1ccc2[nH]c(CN)cc2c1`, for which the IC50 was in the range of 300 to 1000 nM.

`Cn1cc(-c2ccc3[nH]c(CN)cc3c2)cn1` registered an IC50 of 300 to 1000 nM.

The compound `Cc1c(CN)oc2ccc(F)cc12` registered an IC50 of over 1000 nM.

With `NCCc1nc2cc(Cl)ccc2[nH]1`, the IC50 is over 1000 nM.

The compound `NCc1ccnc(Oc2cccc(C(=O)Nc3ccccc3)c2)n1` gave a concentration for half-maximal inhibition (IC50) of 300 to 1000 nM.

`NCc1cc2ccncc2[nH]1` registered a half-maximal inhibitory concentration (IC50) of under 300 nM.

As for `NCc1cnnc(Oc2cccc(C(=O)Nc3ccccc3)c2)c1`, the IC50 is under 300 nM.

Take `NCc1cc2c(cn1)ncn2-c1cccc(C(=O)Nc2ccccc2)c1`: the IC50 was under 300 nM.

`NCCc1nn2cnnc2s1` came in with an IC50 of over 1000 nM.

Compound `NCc1cc2cc(C3CC3)ccc2s1` displayed an IC50 of under 300 nM.

With `NCc1cc2cc(-c3ccc(OCc4ccccc4)nc3)ccc2[nH]1`, the concentration for half-maximal inhibition (IC50) lay in the range of 300 to 1000 nM.

In turn, `NCc1cc2cc(-c3cncc(O)c3)ccc2[nH]1` came in with an IC50 of 300 to 1000 nM.

In turn, `NCc1nc2cc3ccccc3cc2[nH]1` had an IC50 of under 300 nM.

`NCc1cc2ccccc2c(=O)[nH]1` registered an IC50 of 300 to 1000 nM.

`NCc1cc2ccc(C#Cc3ccccc3)cc2c(=O)[nH]1` had a half-maximal inhibitory concentration (IC50) of under 300 nM.

In the case of `NCc1cc2ccc(Br)cc2s1`, the IC50 was under 300 nM.

Compound `Cn1c(CN)cc2ccccc21` returned an IC50 of over 1000 nM.

On to `NCC1=CC(=O)c2ccccc2C1=O`, for which the concentration for half-maximal inhibition (IC50) was under 300 nM.

Regarding `NCc1nc2cc(Cl)ccc2s1`, the IC50 was 300 to 1000 nM.

Regarding `NCc1cc(=O)[nH]c2ccccc12`, the IC50 is over 1000 nM.

In the case of `NCc1ccnnc1`, the IC50 was 300 to 1000 nM.

Regarding `NCCc1nc2ccccc2o1`, the IC50 lay in the range of 300 to 1000 nM.

The compound `NCc1cc(Nc2cccc(C(=O)Nc3ccccc3)c2)n2ccnc2n1` gave an IC50 of under 300 nM.

`NCc1nc2ccccc2o1` came in with an IC50 of over 1000 nM.

`NCc1cc2ccc(-c3cncc(C(=O)NCc4ccccc4)c3)cc2s1` displayed a 50% inhibitory concentration (IC50) of under 300 nM.

`NCc1cc2cc(-c3cccnc3)ccc2s1` gave a 50% inhibitory concentration (IC50) of under 300 nM.

As for `NCc1cc2cc(F)ccc2[nH]1`, the IC50 was over 1000 nM.

As to `NCc1cc2c(cn1)ncn2Cc1cccc(C(=O)Nc2ccccc2)c1`, the 50% inhibitory concentration (IC50) is over 1000 nM.

In turn, `NCc1cccnn1` had an IC50 of under 300 nM.

The compound `Cc1c(F)ccc2cc(CN)[nH]c12` returned an IC50 of over 1000 nM.

`NCc1ccc2[nH]cnc2c1`: the IC50 is over 1000 nM.

`NCc1sc2ccccc2c1Cl` yielded an IC50 of 300 to 1000 nM.

As to `NCc1cc2ncccc2[nH]1`, the IC50 was under 300 nM.

For the compound `NCc1cc(=O)c2cc(Br)ccc2s1`, the concentration for half-maximal inhibition (IC50) is under 300 nM.

For the compound `NCc1cc2cc(F)ccc2s1`, the IC50 was under 300 nM.

With `NCc1nc2cc(Br)cnc2[nH]1`, the half-maximal inhibitory concentration (IC50) is under 300 nM.

`C#Cc1ccc2cc(CN)[nH]c(=O)c2c1`: the IC50 is under 300 nM.

Compound `NCc1cc(O)n2nccc2n1` showed an IC50 of 300 to 1000 nM.

Regarding `NCc1cc2cc(-c3ccc(Oc4ccccc4)nc3)ccc2[nH]1`, the IC50 is under 300 nM.

`COc1ccc(-c2ccc3[nH]c(CN)cc3c2)cn1` registered an IC50 of 300 to 1000 nM.

For `NCc1cc2ccc(-n3cc(Br)cn3)cc2c(=O)[nH]1`, the IC50 is under 300 nM.

`NCc1ccc2ncccc2c1` yielded an IC50 of over 1000 nM.

`NCc1cc2cc(I)ccc2[nH]1` displayed an IC50 of under 300 nM.

As to `NCc1cc2cc(-c3cncc4ccccc34)ccc2[nH]1`, the IC50 is under 300 nM.

`NCCc1nc(-c2ccncc2)cs1`: the IC50 fell in the range of 300 to 1000 nM.

For `Cn1cnc2ccc(-c3ccc4[nH]c(CN)cc4c3)cc21`, the IC50 was under 300 nM.

Consider `NCc1cc2ccc(-c3cccnc3)cc2s1`, for which the IC50 was under 300 nM.

As for `NCc1cc2cc(-c3ccc4nccn4c3)ccc2[nH]1`, the half-inhibitory concentration (IC50) was under 300 nM.

On to `COC(=O)c1cncc(-c2ccc3[nH]c(CN)cc3c2)c1`, for which the IC50 is under 300 nM.

As to `NCc1cc2cc(Cl)ccc2[nH]1`, the IC50 lay in the range of 300 to 1000 nM.

`Cc1ccc2[nH]c(CN)cc2c1` registered a concentration for half-maximal inhibition (IC50) of 300 to 1000 nM.

Compound `NCc1cc2ccccc2o1` registered an IC50 of 300 to 1000 nM.

With `NCc1ccc2[nH]ccc2n1`, the IC50 is over 1000 nM.

`COc1ccc2cc(CN)[nH]c(=O)c2c1`: the 50% inhibitory concentration (IC50) is under 300 nM.

`NCc1cc2ccc(-c3ccc(F)cc3)cc2c(=O)[nH]1`: the IC50 was under 300 nM.

For the compound `NCc1cc2cc(Br)ccc2s1`, the IC50 was under 300 nM.

The compound `NCCc1nc2ccccc2[nH]1` came in with a half-maximal inhibitory concentration (IC50) of over 1000 nM.

In turn, `NCc1cc2cc(-c3ccc(F)cc3)ccc2[nH]1` had an IC50 of under 300 nM.

`NCc1cc2cc(-c3cnc4ccccc4c3)ccc2[nH]1` returned an IC50 of under 300 nM.

`CC(C)(C)c1ccc2oc(CN)nc2c1` registered an IC50 of under 300 nM.

`NCc1cc2cc(Br)ccc2[nH]1`: the IC50 was under 300 nM.

On to `NCc1cc(Oc2cccc(C(=O)Nc3ccccc3)c2)n2ccnc2n1`, for which the IC50 is under 300 nM.

The compound `NCc1cc2occc2s1` had an IC50 of over 1000 nM.

`NCc1nc2ncccc2[nH]1` returned an IC50 of under 300 nM.

On to `NCc1cc2ccc(-c3ccccc3)cc2c(=O)[nH]1`, for which the half-maximal inhibitory concentration (IC50) is under 300 nM.

`CC(CN)c1nc2ccccc2s1` (racemic): the IC50 was in the range of 300 to 1000 nM.

`NCC(O)c1cc2ccccc2s1` (racemic) yielded an IC50 of over 1000 nM.

Turning to `NCc1cc2ccccc2[nH]1` [2-INDOLYLMETHANAMINE], the half-inhibitory concentration (IC50) fell in the range of 300 to 1000 nM.
